According to PubChem BioAssay (NCI):
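Method: 48-hour compound exposure of cells in 96-well plates, five concentrations, linear interpolation of endpoints. At the GI50, growth is halved. At the TGI there is no net growth.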

Assays:
Assay in all cases: NCI-60 cell line screen, 48 h
MDA-MB-231 breast = tested on: MDA-MB-231 breast
SK-OV-3 ovarian = tested on: SK-OV-3 ovarian
MALME-3M melanoma = tested on: MALME-3M melanoma
SNB-19 CNS = tested on: SNB-19 CNS
TK-10 renal = tested on: TK-10 renal
K-562 leukemia = tested on: K-562 leukemia
SR leukemia = tested on: SR leukemia
RPMI-8226 leukemia = tested on: RPMI-8226 leukemia
DU-145 prostate = tested on: DU-145 prostate
SNB-75 CNS = tested on: SNB-75 CNS
SK-MEL-28 melanoma = tested on: SK-MEL-28 melanoma
SF-268 CNS = tested on: SF-268 CNS
SF-539 CNS = tested on: SF-539 CNS
NCI/ADR-RES ovarian = tested on: NCI/ADR-RES ovarian
SK-MEL-2 melanoma = tested on: SK-MEL-2 melanoma
HS 578T breast = tested on: HS 578T breast
NCI-H460 lung = tested on: NCI-H460 lung
SW-620 colon = tested on: SW-620 colon
BT-549 breast = tested on: BT-549 breast
786-0 renal = tested on: 786-0 renal
COLO 205 colon = tested on: COLO 205 colon
MOLT-4 leukemia = tested on: MOLT-4 leukemia
OVCAR-5 ovarian = tested on: OVCAR-5 ovarian
OVCAR-3 ovarian = tested on: OVCAR-3 ovarian
SF-295 CNS = tested on: SF-295 CNS
SN12C renal = tested on: SN12C renal
CCRF-CEM leukemia = tested on: CCRF-CEM leukemia
M14 melanoma = tested on: M14 melanoma
HOP-62 NSCLC = tested on: HOP-62 NSCLC
LOX IMVI melanoma = tested on: LOX IMVI melanoma
A549 NSCLC = tested on: A549 NSCLC
HT29 colon = tested on: HT29 colon
EKVX NSCLC = tested on: EKVX NSCLC
NCI-H23 lung = tested on: NCI-H23 lung
RXF 393 renal = tested on: RXF 393 renal
HCT-15 colon = tested on: HCT-15 colon
HCC-2998 colon = tested on: HCC-2998 colon
NCI-H226 lung = tested on: NCI-H226 lung
ACHN renal = tested on: ACHN renal
OVCAR-8 ovarian = tested on: OVCAR-8 ovarian
OVCAR-4 ovarian = tested on: OVCAR-4 ovarian
KM12 colon = tested on: KM12 colon
HOP-92 NSCLC = tested on: HOP-92 NSCLC
NCI-H522 lung = tested on: NCI-H522 lung
PC-3 prostate = tested on: PC-3 prostate
IGROV1 ovarian = tested on: IGROV1 ovarian
MCF7 breast = tested on: MCF7 breast
UACC-62 melanoma = tested on: UACC-62 melanoma
MDA-MB-435 = tested on: MDA-MB-435
UO-31 renal = tested on: UO-31 renal
HL-60(TB) leukemia = tested on: HL-60(TB) leukemia
SK-MEL-5 melanoma = tested on: SK-MEL-5 melanoma
CAKI-1 renal = tested on: CAKI-1 renal
U251 CNS = tested on: U251 CNS
T-47D breast = tested on: T-47D breast
UACC-257 melanoma = tested on: UACC-257 melanoma

Compound: COc1cc(/C=C\[N+](=O)[O-])ccc1OCc1ccccc1
- GI50 (MDA-MB-231 breast): 1.85 µM
- TGI (MDA-MB-231 breast): 5.55 µM
- GI50 (SK-OV-3 ovarian): 4.65 µM
- TGI (SK-OV-3 ovarian): 15.2 µM
- GI50 (MALME-3M melanoma): 2.54 µM
- TGI (MALME-3M melanoma): 9.38 µM
- GI50 (SNB-19 CNS): 2.64 µM
- TGI (SNB-19 CNS): 8.41 µM
- GI50 (TK-10 renal): 1.93 µM
- TGI (TK-10 renal): 5.27 µM
- GI50 (K-562 leukemia): 2.06 µM
- TGI (K-562 leukemia): 11.1 µM
- GI50 (SR leukemia): 1.46 µM
- TGI (SR leukemia): 5.27 µM
- GI50 (RPMI-8226 leukemia): 0.43 µM
- TGI (RPMI-8226 leukemia): 2.73 µM
- GI50 (DU-145 prostate): 1.8 µM
- TGI (DU-145 prostate): 3.52 µM
- GI50 (SNB-75 CNS): 1.63 µM
- TGI (SNB-75 CNS): 6.79 µM
- GI50 (SK-MEL-28 melanoma): 2.08 µM
- TGI (SK-MEL-28 melanoma): 4.5 µM
- GI50 (SF-268 CNS): 2.83 µM
- TGI (SF-268 CNS): 11.5 µM
- GI50 (SF-539 CNS): 2.09 µM
- TGI (SF-539 CNS): 4.18 µM
- GI50 (NCI/ADR-RES ovarian): 3.5 µM
- TGI (NCI/ADR-RES ovarian): 24.9 µM
- GI50 (SK-MEL-2 melanoma): 3.67 µM
- TGI (SK-MEL-2 melanoma): 14.6 µM
- GI50 (HS 578T breast): 3.81 µM
- TGI (HS 578T breast): > 100 µM
- GI50 (NCI-H460 lung): 3.98 µM
- TGI (NCI-H460 lung): 15.9 µM
- GI50 (SW-620 colon): 1.49 µM
- TGI (SW-620 colon): 4.02 µM
- GI50 (BT-549 breast): 1.58 µM
- TGI (BT-549 breast): 3.3 µM
- GI50 (786-0 renal): 1.84 µM
- TGI (786-0 renal): 3.74 µM
- GI50 (COLO 205 colon): 1.67 µM
- TGI (COLO 205 colon): 3.37 µM
- GI50 (MOLT-4 leukemia): 2.7 µM
- TGI (MOLT-4 leukemia): 7.61 µM
- GI50 (OVCAR-5 ovarian): 3.29 µM
- TGI (OVCAR-5 ovarian): 13.7 µM
- GI50 (OVCAR-3 ovarian): 1.62 µM
- TGI (OVCAR-3 ovarian): 3.71 µM
- GI50 (SF-295 CNS): 4.07 µM
- TGI (SF-295 CNS): 18.8 µM
- GI50 (SN12C renal): 2.77 µM
- TGI (SN12C renal): 8.42 µM
- GI50 (CCRF-CEM leukemia): 3.13 µM
- TGI (CCRF-CEM leukemia): 11.5 µM
- GI50 (M14 melanoma): 1.65 µM
- TGI (M14 melanoma): 4.31 µM
- GI50 (HOP-62 NSCLC): 2.35 µM
- TGI (HOP-62 NSCLC): 6.58 µM
- GI50 (LOX IMVI melanoma): 1 µM
- TGI (LOX IMVI melanoma): 2.3 µM
- GI50 (A549 NSCLC): 3.17 µM
- TGI (A549 NSCLC): 10.5 µM
- GI50 (HT29 colon): 1.94 µM
- TGI (HT29 colon): 4 µM
- GI50 (EKVX NSCLC): 3.71 µM
- TGI (EKVX NSCLC): 17.6 µM
- GI50 (NCI-H23 lung): 2.07 µM
- TGI (NCI-H23 lung): 5.26 µM
- GI50 (RXF 393 renal): 1.8 µM
- TGI (RXF 393 renal): 3.73 µM
- GI50 (HCT-15 colon): 1.72 µM
- TGI (HCT-15 colon): 3.51 µM
- GI50 (HCC-2998 colon): 1.86 µM
- TGI (HCC-2998 colon): 3.63 µM
- GI50 (NCI-H226 lung): 2.26 µM
- TGI (NCI-H226 lung): 5.47 µM
- GI50 (ACHN renal): 1.99 µM
- TGI (ACHN renal): 4.36 µM
- GI50 (OVCAR-8 ovarian): 2.91 µM
- TGI (OVCAR-8 ovarian): 9.56 µM
- GI50 (OVCAR-4 ovarian): 3.07 µM
- TGI (OVCAR-4 ovarian): 13.1 µM
- GI50 (KM12 colon): 3.06 µM
- TGI (KM12 colon): 10.8 µM
- GI50 (HOP-92 NSCLC): 12.5 µM
- TGI (HOP-92 NSCLC): 31.4 µM
- GI50 (NCI-H522 lung): 2.04 µM
- TGI (NCI-H522 lung): 6.62 µM
- GI50 (PC-3 prostate): 3.5 µM
- TGI (PC-3 prostate): 25.4 µM
- GI50 (IGROV1 ovarian): 2.48 µM
- TGI (IGROV1 ovarian): 7.6 µM
- GI50 (MCF7 breast): 1.44 µM
- TGI (MCF7 breast): 3.27 µM
- GI50 (UACC-62 melanoma): 1.7 µM
- TGI (UACC-62 melanoma): 4.67 µM
- GI50 (MDA-MB-435): 2.37 µM
- TGI (MDA-MB-435): 10.3 µM
- GI50 (UO-31 renal): 1.54 µM
- TGI (UO-31 renal): 3.06 µM
- GI50 (HL-60(TB) leukemia): 2.48 µM
- TGI (HL-60(TB) leukemia): 6.16 µM
- GI50 (SK-MEL-5 melanoma): 1.4 µM
- TGI (SK-MEL-5 melanoma): 3.05 µM
- GI50 (CAKI-1 renal): 3.05 µM
- TGI (CAKI-1 renal): 13.2 µM
- GI50 (U251 CNS): 1.55 µM
- TGI (U251 CNS): 3.01 µM
- GI50 (T-47D breast): 2.25 µM
- TGI (T-47D breast): 7.44 µM
- GI50 (UACC-257 melanoma): 2.08 µM
- TGI (UACC-257 melanoma): 5.83 µM
